Laboratory results as given in ChEMBL document CHEMBL1201862, “PubChem BioAssay data set” (2004).
The source made the active and inactive calls.

What was measured:
Type in all cases: functional
[1] = target: 3-phosphoinositide-dependent protein kinase 1 (Homo sapiens, UniProt O15530);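 note: value comes from the Navigating the Kinome panel, PDPK1 member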
[2] = target: Casein kinase I isoform delta (Homo sapiens, UniProt P48730);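 note: measured as one member (CSNK1D) of a kinome panel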
[3] = target: Cyclin-dependent kinase 2 (Homo sapiens, UniProt P24941);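 note: CDK2 measured as one member of a broad kinome profiling panel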
[4] = target: Interleukin-1 receptor-associated kinase 4 (Homo sapiens, UniProt Q9NWZ3)
Sequence of Interleukin-1 receptor-associated kinase 4 (Q9NWZ3 whole entry): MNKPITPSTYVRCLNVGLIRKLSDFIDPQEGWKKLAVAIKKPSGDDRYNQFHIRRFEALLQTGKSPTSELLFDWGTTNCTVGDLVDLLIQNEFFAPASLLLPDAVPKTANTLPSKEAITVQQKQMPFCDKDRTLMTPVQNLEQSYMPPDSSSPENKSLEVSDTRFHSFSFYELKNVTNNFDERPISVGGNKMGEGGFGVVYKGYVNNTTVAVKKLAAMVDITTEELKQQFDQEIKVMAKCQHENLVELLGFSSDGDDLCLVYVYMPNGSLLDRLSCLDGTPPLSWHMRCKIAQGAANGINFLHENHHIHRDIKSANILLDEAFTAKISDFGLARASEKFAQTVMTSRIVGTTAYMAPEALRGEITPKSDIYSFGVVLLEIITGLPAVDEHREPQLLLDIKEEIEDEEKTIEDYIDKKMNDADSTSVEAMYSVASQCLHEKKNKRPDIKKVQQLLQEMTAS

[5] = target: Cyclin-dependent kinase 1 (Homo sapiens, UniProt P06493);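 note: Kinome-wide panel profiling, with the target listed as panel member CDC2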
[6] = target: Ribosomal protein S6 kinase beta-1 (Homo sapiens, UniProt P23443);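 note: measured as one member of a kinome-wide profiling panel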
[7] = target: RAC-alpha serine/threonine-protein kinase (Homo sapiens, UniProt P31749);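 note: AKT1 affinity measured as one member of a kinome-wide kinase profiling panel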
[8] = target: Protein kinase C delta type (Homo sapiens, UniProt Q05655)
Sequence of Protein kinase C delta type (Q05655 whole entry): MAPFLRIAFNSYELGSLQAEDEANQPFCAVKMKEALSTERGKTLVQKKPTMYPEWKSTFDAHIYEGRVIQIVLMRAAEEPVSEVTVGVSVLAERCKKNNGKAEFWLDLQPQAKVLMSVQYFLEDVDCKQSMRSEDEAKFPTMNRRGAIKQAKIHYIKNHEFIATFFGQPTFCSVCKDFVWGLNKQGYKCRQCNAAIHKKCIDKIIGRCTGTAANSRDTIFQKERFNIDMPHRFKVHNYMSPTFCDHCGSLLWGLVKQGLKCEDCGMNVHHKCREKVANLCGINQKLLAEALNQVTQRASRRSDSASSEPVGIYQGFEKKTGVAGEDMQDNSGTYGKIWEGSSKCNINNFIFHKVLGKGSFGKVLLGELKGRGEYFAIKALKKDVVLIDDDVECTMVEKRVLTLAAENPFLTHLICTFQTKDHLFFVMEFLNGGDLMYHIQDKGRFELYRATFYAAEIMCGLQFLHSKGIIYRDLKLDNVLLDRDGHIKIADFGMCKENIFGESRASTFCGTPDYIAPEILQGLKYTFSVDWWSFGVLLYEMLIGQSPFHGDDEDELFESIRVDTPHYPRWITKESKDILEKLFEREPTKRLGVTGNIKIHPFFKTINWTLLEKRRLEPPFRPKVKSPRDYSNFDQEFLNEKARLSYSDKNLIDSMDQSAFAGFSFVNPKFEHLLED

[9] = target: Cyclin-dependent kinase 5 (Homo sapiens, UniProt Q00535);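 note: CDK5 measured as one member of a kinase profiling panel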
[10] = target: Serine/threonine-protein kinase PLK4 (Homo sapiens, UniProt O00444);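 note: PLK4 measured as one member of a kinome-wide kinase profiling panel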
[11] = target: Proto-oncogene tyrosine-protein kinase Src (Homo sapiens, UniProt P12931);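 note: SRC entry within a kinome-wide kinase profiling panel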
[12] = target: Serine/threonine-protein kinase Nek2 (Homo sapiens, UniProt P51955)
[13] = target: Vascular endothelial growth factor receptor 3 (Homo sapiens, UniProt P35916);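 note: value from a kinome-wide profiling panel, with FLT4 as the panel member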
[14] = target: Fibroblast growth factor receptor 3 (Homo sapiens, UniProt P22607)
[15] = target: Tyrosine-protein kinase Lyn (Homo sapiens, UniProt P07948);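 note: lyn as one member of a kinase panel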
[16] = target: Calcium/calmodulin-dependent protein kinase type 1 (Homo sapiens, UniProt Q14012)
Sequence of Calcium/calmodulin-dependent protein kinase type 1 (Q14012 whole entry): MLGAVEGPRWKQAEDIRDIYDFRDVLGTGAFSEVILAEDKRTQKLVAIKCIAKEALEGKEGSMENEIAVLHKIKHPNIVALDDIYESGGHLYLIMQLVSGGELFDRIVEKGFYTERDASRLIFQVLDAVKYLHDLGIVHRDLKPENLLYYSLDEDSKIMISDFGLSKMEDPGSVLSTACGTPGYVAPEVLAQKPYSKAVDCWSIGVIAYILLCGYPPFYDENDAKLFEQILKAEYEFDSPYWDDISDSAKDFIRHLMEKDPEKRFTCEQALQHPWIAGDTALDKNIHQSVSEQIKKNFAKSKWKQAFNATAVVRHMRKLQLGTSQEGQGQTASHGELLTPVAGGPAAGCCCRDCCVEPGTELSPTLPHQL

[17] = target: Rho-associated protein kinase 2 (Homo sapiens, UniProt O75116)
[18] = target: Serine/threonine-protein kinase Chk1 (Homo sapiens, UniProt O14757);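 note: measured as one member of a kinome-wide kinase profiling panel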
[19] = target: Inhibitor of nuclear factor kappa-B kinase subunit epsilon (Homo sapiens, UniProt Q14164); test: Navigating the Kinome. Panel member name: IKBKE
Sequence of Inhibitor of nuclear factor kappa-B kinase subunit epsilon (Q14164 whole entry): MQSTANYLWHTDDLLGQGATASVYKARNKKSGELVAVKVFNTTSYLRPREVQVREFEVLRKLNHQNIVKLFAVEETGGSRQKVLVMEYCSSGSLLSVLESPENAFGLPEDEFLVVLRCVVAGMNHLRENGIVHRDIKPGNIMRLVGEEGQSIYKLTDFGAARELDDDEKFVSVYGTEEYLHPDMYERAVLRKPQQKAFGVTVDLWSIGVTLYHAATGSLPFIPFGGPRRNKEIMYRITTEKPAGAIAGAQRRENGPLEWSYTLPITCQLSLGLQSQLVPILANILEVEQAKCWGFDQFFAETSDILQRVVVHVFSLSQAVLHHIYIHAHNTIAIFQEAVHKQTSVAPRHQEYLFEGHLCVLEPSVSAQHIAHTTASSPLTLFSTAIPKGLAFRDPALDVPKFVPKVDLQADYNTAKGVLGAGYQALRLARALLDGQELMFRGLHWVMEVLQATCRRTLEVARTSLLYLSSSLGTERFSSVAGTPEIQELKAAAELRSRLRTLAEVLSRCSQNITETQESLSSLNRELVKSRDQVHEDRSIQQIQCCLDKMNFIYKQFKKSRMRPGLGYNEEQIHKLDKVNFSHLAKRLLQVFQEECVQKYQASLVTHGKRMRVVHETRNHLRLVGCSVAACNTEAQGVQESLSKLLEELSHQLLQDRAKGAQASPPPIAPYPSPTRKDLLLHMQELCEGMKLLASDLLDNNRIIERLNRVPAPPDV

[20] = target: Serine/threonine-protein kinase N2 (Homo sapiens, UniProt Q16513)
Sequence of Serine/threonine-protein kinase N2 (Q16513 whole entry): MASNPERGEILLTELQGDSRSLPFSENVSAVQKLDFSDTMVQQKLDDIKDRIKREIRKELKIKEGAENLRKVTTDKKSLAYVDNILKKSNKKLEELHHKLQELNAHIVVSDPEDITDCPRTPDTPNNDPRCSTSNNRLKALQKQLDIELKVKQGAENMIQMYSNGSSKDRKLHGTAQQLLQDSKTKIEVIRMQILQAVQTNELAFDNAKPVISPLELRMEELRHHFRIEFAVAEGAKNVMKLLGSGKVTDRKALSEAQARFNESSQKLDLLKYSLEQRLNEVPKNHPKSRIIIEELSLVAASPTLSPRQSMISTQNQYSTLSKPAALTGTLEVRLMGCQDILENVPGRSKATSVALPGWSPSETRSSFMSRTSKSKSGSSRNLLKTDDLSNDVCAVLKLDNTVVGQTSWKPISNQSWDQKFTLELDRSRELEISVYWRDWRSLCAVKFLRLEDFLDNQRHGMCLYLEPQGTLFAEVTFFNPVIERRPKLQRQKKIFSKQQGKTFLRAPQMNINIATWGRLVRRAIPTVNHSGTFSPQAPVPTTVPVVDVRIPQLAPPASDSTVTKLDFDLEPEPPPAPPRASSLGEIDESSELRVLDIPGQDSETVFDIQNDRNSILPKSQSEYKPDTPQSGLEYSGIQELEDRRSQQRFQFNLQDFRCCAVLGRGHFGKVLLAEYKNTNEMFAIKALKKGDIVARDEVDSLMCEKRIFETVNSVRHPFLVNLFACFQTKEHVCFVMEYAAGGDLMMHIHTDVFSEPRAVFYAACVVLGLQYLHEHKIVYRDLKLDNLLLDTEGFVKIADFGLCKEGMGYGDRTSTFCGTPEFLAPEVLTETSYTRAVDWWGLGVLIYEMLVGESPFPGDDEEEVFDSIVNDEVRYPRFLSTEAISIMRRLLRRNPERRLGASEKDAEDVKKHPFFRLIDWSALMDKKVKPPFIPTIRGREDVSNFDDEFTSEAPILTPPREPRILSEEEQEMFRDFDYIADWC

[21] = target: Leucine-rich repeat serine/threonine-protein kinase 2 (Homo sapiens, UniProt Q5S007);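 note: value from a broad kinome-wide panel profiling study in which LRRK2 was one of the kinases tested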
[22] = target: Serine/threonine-protein kinase TAO1 (Homo sapiens, UniProt Q7L7X3)
[23] = target: Tyrosine-protein kinase receptor TYRO3 (Homo sapiens, UniProt Q06418);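 note: TYRO3 value obtained as one member of a kinome-wide profiling panel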
Sequence of Tyrosine-protein kinase receptor TYRO3 (Q06418 whole entry): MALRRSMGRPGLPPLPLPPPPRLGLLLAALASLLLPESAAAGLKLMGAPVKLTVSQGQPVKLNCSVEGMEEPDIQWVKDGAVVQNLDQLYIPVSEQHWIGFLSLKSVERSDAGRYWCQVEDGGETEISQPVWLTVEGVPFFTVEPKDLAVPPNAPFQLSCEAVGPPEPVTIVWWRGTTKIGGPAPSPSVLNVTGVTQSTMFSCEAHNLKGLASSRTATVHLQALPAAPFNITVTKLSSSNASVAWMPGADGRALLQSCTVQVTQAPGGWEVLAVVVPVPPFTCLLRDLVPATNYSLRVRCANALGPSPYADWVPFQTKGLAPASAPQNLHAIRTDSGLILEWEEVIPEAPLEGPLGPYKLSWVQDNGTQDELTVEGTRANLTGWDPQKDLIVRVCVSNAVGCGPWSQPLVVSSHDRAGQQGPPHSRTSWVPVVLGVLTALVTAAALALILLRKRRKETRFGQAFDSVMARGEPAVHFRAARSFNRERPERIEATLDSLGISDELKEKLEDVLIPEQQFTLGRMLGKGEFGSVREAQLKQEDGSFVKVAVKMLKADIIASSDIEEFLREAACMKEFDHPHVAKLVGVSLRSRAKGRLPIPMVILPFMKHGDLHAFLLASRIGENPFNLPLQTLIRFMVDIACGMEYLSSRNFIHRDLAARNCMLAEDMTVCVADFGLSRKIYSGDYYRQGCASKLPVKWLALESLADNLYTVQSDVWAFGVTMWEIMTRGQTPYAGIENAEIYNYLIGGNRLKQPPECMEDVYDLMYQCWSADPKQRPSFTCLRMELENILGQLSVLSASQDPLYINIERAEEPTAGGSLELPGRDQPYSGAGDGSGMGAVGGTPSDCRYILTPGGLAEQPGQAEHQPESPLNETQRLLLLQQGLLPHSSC

[24] = target: Cyclin-dependent kinase 7 (Homo sapiens, UniProt P50613);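 note: value comes from a kinome-wide kinase profiling panel in which CDK7 is one member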
[25] = target: Serine/threonine-protein kinase D3 (Homo sapiens, UniProt O94806);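 note: determined within a kinase panel screen, with PRKCN as the panel member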
[26] = target: Macrophage-stimulating protein receptor (Homo sapiens, UniProt Q04912); test: Navigating the Kinome. Panel member name: MST1R
[27] = target: Leukocyte tyrosine kinase receptor (Homo sapiens, UniProt P29376); test: Navigating the Kinome. Panel member name: LTK
[28] = target: Tyrosine-protein kinase Lck (Homo sapiens, UniProt P06239);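 note: lck was assayed as one member of a kinase panel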
Sequence of Tyrosine-protein kinase Lck (P06239 whole entry): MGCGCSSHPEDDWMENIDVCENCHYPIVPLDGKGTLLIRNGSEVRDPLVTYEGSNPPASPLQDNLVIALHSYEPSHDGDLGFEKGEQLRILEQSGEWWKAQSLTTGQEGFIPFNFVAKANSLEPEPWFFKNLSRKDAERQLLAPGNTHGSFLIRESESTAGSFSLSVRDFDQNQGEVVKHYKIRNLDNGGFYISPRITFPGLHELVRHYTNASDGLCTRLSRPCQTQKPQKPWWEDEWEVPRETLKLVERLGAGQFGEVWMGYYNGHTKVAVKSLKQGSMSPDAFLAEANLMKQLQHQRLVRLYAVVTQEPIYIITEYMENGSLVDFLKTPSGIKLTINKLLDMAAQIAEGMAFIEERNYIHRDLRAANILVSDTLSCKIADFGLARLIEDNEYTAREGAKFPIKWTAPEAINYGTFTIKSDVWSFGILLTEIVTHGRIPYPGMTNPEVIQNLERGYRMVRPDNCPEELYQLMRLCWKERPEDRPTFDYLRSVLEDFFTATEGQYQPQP

[29] = target: Dual specificity mitogen-activated protein kinase kinase 2 (Homo sapiens, UniProt P36507); test: Navigating the Kinome. Panel member name: MAP2K2
[30] = target: Cell division cycle 7-related protein kinase (Homo sapiens, UniProt O00311);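 note: value obtained from a kinome-wide kinase panel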

Sequence of Casein kinase I isoform delta (P48730 whole entry, canonical isoform): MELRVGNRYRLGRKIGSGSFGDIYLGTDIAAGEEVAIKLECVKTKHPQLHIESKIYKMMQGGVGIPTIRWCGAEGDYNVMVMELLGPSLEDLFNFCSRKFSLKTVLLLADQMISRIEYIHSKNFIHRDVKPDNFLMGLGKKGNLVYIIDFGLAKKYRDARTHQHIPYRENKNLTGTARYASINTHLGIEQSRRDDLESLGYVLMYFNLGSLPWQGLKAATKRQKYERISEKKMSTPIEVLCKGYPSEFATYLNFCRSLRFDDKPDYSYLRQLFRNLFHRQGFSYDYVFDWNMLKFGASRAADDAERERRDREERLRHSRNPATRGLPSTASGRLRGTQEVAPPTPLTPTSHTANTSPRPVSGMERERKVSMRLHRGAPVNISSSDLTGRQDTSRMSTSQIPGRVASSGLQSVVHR

## NC(COc1cncc(-c2cc3ccncc3s2)c1)Cc1c[nH]c2ccccc12 (stereo not given)
[1]
  Ki: 251 nM (active)
[2]
  Ki: 794 nM (active)
[3]
  Ki: 158 nM (active)
[4]
  Ki: 1580 nM (active)
[5]
  Ki: 158 nM (active)
[6]
  Ki: 6.31 nM (active)
[7]
  Ki: 12.6 nM (active)
[8]
  Ki: 50.1 nM (active)
[9]
  Ki: 316 nM (active)
[10]
  Ki: 631 nM (active)
[11]
  Ki: > 2510 nM (inactive)
[12]
  Ki: > 10000 nM (inactive)
[13]
  Ki: 100 nM (active)
[14]
  Ki: > 2000 nM (inactive)
[15]
  Ki: > 1580 nM (inactive)
[16]
  Ki: 3160 nM (active)
[17]
  Ki: 10 nM (active)
[18]
  Ki: 3980 nM (active)

## CN(C)C1CCC(Nc2nc(Cl)cc(-c3c[nH]c4ncccc34)n2)CC1 (stereo not given)
[19]
  Ki: 2510 nM (active)
[20]
  Ki: 10 nM (active)
[21]
  Ki: 15.8 nM (active)
[22]
  Ki: > 6310 nM (inactive)
[23]
  Ki: > 3160 nM (inactive)
[24]
  Ki: 100 nM (active)
[25]
  Ki: 15.8 nM (active)
[26]
  Ki: 79.4 nM (active)
[27]
  Ki: 501 nM (active)
[28]
  Ki: 5010 nM (active)
[29]
  Ki: 316 nM (active)
[30]
  Ki: 0.316 nM (active)
